Target: DNA-dependent protein kinase catalytic subunit (Homo sapiens, UniProt P78527)
Experiment: Inhibition of DNA-PK (unknown origin)

Sequence of DNA-dependent protein kinase catalytic subunit (P78527 whole entry): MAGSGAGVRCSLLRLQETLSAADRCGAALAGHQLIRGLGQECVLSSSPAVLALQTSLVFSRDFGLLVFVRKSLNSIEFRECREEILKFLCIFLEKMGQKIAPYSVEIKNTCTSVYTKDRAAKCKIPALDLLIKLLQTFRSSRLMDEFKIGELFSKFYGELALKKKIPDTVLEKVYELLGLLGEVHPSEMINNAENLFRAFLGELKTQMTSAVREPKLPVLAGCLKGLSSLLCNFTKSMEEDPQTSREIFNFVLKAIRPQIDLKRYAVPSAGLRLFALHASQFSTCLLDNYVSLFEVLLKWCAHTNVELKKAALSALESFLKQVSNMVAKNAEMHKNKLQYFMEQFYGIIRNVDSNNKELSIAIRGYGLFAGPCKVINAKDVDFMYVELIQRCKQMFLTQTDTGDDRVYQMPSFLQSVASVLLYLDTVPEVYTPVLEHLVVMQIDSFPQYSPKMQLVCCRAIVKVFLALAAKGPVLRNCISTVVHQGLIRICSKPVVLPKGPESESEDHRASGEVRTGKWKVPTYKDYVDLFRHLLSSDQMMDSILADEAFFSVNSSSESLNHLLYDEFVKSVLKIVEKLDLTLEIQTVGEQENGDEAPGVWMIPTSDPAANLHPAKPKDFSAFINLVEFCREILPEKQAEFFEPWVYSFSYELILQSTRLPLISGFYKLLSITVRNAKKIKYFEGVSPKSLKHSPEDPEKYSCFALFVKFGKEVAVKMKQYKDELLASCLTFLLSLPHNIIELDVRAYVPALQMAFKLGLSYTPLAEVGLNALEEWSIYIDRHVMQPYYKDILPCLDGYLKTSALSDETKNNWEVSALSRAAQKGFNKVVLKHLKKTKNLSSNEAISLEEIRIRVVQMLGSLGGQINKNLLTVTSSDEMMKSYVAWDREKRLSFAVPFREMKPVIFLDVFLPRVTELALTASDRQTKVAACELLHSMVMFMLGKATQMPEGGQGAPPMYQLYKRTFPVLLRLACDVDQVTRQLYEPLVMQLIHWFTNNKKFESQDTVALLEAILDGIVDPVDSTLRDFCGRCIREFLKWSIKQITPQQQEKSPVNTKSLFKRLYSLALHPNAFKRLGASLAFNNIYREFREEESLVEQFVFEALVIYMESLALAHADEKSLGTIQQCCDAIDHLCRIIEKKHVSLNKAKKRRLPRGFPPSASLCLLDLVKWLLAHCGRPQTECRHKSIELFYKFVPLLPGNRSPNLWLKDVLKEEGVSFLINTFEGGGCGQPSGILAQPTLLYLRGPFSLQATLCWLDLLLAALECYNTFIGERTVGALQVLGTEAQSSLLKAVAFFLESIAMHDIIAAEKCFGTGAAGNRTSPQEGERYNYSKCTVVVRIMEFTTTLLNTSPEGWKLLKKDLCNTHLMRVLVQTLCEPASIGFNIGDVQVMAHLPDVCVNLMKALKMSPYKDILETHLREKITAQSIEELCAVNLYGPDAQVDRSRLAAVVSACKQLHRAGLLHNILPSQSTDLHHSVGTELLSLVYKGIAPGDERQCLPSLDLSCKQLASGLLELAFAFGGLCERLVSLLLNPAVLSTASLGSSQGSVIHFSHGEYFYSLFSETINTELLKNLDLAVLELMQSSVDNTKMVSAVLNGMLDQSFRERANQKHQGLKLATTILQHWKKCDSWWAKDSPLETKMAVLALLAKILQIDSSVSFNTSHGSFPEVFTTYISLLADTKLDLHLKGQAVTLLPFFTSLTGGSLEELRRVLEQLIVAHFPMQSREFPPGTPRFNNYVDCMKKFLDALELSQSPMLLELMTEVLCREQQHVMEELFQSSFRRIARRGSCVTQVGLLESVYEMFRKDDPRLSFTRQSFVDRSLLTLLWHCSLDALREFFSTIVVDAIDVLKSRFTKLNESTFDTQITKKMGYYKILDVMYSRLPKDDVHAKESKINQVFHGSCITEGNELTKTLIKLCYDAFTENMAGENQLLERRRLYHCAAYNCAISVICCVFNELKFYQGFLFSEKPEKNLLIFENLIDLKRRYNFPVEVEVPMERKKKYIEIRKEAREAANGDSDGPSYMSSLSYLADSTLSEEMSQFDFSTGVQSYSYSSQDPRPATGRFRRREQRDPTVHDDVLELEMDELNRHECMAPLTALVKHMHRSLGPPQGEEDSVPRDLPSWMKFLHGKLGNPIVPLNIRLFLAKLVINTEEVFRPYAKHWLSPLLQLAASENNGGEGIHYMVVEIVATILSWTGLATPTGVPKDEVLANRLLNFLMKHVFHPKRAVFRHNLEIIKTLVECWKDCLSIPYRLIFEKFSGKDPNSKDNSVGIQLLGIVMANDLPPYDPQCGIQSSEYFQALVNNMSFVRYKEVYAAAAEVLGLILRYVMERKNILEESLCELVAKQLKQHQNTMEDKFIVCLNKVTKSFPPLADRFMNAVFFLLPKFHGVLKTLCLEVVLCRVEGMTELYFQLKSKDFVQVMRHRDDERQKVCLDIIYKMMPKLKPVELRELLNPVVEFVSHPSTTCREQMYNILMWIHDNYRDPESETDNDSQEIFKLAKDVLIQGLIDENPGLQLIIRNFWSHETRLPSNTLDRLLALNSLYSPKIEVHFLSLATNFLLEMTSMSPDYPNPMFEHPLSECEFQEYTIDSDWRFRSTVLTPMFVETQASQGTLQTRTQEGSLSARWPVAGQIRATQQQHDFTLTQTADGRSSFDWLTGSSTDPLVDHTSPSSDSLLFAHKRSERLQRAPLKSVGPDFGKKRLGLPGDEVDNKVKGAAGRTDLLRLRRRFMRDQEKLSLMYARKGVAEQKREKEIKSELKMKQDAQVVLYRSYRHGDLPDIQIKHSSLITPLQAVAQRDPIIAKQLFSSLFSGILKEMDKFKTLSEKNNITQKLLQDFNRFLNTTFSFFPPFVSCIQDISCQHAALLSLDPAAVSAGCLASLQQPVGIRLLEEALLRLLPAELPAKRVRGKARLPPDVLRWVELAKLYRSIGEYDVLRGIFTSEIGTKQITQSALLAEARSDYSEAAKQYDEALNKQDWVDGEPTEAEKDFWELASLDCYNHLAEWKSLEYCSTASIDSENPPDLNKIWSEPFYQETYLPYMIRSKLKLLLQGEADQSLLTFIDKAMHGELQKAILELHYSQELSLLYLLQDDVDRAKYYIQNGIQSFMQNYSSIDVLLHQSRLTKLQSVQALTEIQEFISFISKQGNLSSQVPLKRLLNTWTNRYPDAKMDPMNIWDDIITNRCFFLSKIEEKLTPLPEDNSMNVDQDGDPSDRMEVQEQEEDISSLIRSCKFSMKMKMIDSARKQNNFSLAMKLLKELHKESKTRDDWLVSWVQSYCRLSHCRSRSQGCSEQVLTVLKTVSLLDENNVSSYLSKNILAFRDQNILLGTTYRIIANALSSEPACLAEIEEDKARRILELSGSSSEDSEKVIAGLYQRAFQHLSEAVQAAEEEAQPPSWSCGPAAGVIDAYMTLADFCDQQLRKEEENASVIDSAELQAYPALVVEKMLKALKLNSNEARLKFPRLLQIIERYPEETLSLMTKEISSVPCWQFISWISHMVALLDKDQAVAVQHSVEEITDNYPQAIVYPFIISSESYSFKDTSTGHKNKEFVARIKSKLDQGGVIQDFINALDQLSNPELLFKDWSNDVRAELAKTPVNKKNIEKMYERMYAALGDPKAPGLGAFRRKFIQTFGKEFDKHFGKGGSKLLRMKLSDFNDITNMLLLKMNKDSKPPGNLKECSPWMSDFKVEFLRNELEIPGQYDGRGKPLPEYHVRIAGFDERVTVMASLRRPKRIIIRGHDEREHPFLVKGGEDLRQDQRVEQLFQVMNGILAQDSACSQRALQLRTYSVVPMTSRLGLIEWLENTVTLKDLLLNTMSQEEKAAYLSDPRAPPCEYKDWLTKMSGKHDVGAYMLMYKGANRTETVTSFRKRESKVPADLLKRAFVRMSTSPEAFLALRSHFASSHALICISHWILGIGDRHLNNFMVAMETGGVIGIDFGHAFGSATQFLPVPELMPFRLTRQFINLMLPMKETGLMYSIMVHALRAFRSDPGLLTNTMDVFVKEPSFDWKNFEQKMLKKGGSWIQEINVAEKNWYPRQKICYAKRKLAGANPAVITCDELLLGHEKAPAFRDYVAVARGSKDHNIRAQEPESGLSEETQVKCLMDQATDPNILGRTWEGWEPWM

Compound `COc1ncc(-c2cc3c(c(NC(=O)CN4CCOCC4)c2)COC3)cc1NS(C)(=O)=O` has an IC50 of 2510 nM.

— BindingDB's records for doi:10.1021/acs.jmedchem.6b00799 (Glaxosmithkline R&D, 2016)
